Test systems include HL-60(TB) leukemia; HOP-62 NSCLC; A549 NSCLC; KM12 colon; SF-295 CNS; NCI-H226 lung; MDA-MB-231 breast; 786-0 renal; NCI-H460 lung; DU-145 prostate.
What all share (experiment): NCI-60 cell line screen, 48 h

Structures are written as SMILES. Values joined by “and” are separate entries in the source; they are usually repeats but may differ in a detail not shown here. Identical values can stand only once.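 All cell lines were grown in 96-well plates and treated with compound for 48 hours. GI50: concentration for 50% inhibition of growth. TGI denotes the concentration required for complete inhibition of growth.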 Bounds are passed on as bounds.

Regarding `O=C1CC2C(=O)c3ccccc3CC2c2ccccc21` (centres undefined), the TGI in the assay with HL-60(TB) leukemia was 62.6 µM; in the assay on HOP-62 NSCLC it was > 100 µM; with A549 NSCLC, > 100 µM; in the assay with KM12 colon, > 100 µM; in the assay on SF-295 CNS it was > 100 µM; in the assay on NCI-H226 lung, > 100 µM. In addition, the TGI with MDA-MB-231 breast, with 786-0 renal, in the assay with NCI-H460 lung and in the assay on DU-145 prostate was > 100 µM throughout.

Take `O=C(NOC[C@H](O)CO)c1ccc(F)c(F)c1Nc1ccc(I)cc1F`: the GI50 was < 10 nM and 16.6 nM in the assay with HL-60(TB) leukemia; 5.99 nM in the assay on HOP-62 NSCLC; 946 nM and 100 nM with A549 NSCLC; 45.6 nM and 36 nM in the assay with KM12 colon; 14.5 µM and > 10 µM with SF-295 CNS; 717 nM and 1430 nM in the assay with NCI-H226 lung. Also, the GI50 in the assay with MDA-MB-231 breast is 160 nM and 34.7 nM; with 786-0 renal, 21.6 µM and > 10 µM; in the assay on NCI-H460 lung, 15000 nM and > 3360 nM; in the assay with DU-145 prostate, 11.3 µM and 1.67 µM. Further, the TGI in the assay with HL-60(TB) leukemia, in the assay with HOP-62 NSCLC, in the assay with A549 NSCLC, with KM12 colon, with SF-295 CNS and with NCI-H226 lung was > 100 µM in each case. Further, the TGI in the assay with MDA-MB-231 breast was 62.7 µM and > 10 µM; in the assay on 786-0 renal, > 100 µM; in the assay with NCI-H460 lung it was > 100 µM; in the assay on DU-145 prostate it was > 100 µM.

Take `COc1cc(F)c(F)c(Nc2ccc(I)cc2F)c1NS(=O)(=O)C1(C[C@H](O)CO)CC1`: the GI50 with HL-60(TB) leukemia is 21.9 nM; in the assay on HOP-62 NSCLC, 184 nM; in the assay on A549 NSCLC it was 628 nM; in the assay with KM12 colon, 371 nM; with SF-295 CNS it was > 5.78 µM; in the assay with NCI-H226 lung it was > 3420 nM. In addition, the GI50 with MDA-MB-231 breast was 217 nM; with 786-0 renal, > 4.02 µM; in the assay with NCI-H460 lung it was 1620 nM; in the assay on DU-145 prostate, 5.02 µM. The TGI with HL-60(TB) leukemia, in the assay on HOP-62 NSCLC, with A549 NSCLC, with KM12 colon, in the assay with SF-295 CNS and with NCI-H226 lung was > 10 µM each time. Besides, the TGI was > 9.46 µM in the assay on MDA-MB-231 breast, > 10 µM in the assay with 786-0 renal, > 10 µM in the assay with NCI-H460 lung and > 10 µM with DU-145 prostate.

On to `CCOC(=O)c1cc2cc3c4c(c2oc1=O)CCCN4CCC3`, for which the TGI with HL-60(TB) leukemia is 45.8 µM; in the assay on HOP-62 NSCLC, > 100 µM; in the assay on A549 NSCLC, > 100 µM; in the assay on KM12 colon, 61.9 µM; in the assay with SF-295 CNS, > 100 µM; in the assay with NCI-H226 lung it was 51.3 µM. Further, the TGI with MDA-MB-231 breast is 69.2 µM; with 786-0 renal, > 100 µM; with NCI-H460 lung, > 100 µM; in the assay with DU-145 prostate, > 100 µM.

In the case of `COc1cccc(/C(C#N)=C/c2nc3c(N4CCOCC4)nc(Cl)nc3n2C)c1`, the GI50 with HL-60(TB) leukemia was 1460 nM; in the assay with HOP-62 NSCLC, 1600 nM; in the assay on A549 NSCLC, 1570 nM; with KM12 colon it was 1770 nM; in the assay on SF-295 CNS it was 2.47 µM; in the assay with NCI-H226 lung, 1560 nM. The GI50 in the assay on MDA-MB-231 breast is 1380 nM; in the assay with 786-0 renal it was 1.59 µM; with NCI-H460 lung, 1710 nM; in the assay on DU-145 prostate, 1.29 µM. Also, the TGI in the assay on HL-60(TB) leukemia came out at 3.96 µM; in the assay with HOP-62 NSCLC, 3.64 µM; in the assay with A549 NSCLC it was 4.23 µM; with KM12 colon, 3.53 µM; with SF-295 CNS, 7.88 µM; in the assay on NCI-H226 lung, 3.35 µM. Also, the TGI was 2.82 µM in the assay with MDA-MB-231 breast, 3.05 µM in the assay on 786-0 renal, 3.65 µM in the assay on NCI-H460 lung and 2.58 µM in the assay with DU-145 prostate.

Regarding `COc1cc2ncn(-c3cc(OCc4ccccc4C(F)(F)F)c(C(=O)N(C)C)s3)c2cc1OC`, the GI50 in the assay on HL-60(TB) leukemia was > 25000 nM; in the assay on HOP-62 NSCLC, > 13500 nM; in the assay on A549 NSCLC, 24900 nM; in the assay with KM12 colon it was > 25000 nM; in the assay with SF-295 CNS, > 22.6 µM; in the assay on NCI-H226 lung it was 5850 nM. For the same molecule, the GI50 with MDA-MB-231 breast was 10900 nM; in the assay on 786-0 renal, > 25 µM; with NCI-H460 lung, > 25000 nM; in the assay on DU-145 prostate it was > 25 µM. The TGI with HL-60(TB) leukemia was > 25 µM; in the assay on HOP-62 NSCLC it was > 25 µM; with A549 NSCLC, > 25 µM; in the assay on KM12 colon, > 25 µM; in the assay on SF-295 CNS it was > 25 µM; in the assay with NCI-H226 lung it was > 12.5 µM. Also, the TGI with MDA-MB-231 breast, in the assay on 786-0 renal, in the assay on NCI-H460 lung and in the assay with DU-145 prostate was > 25 µM throughout.

On to `COc1ccc(NC(=O)CSC2=C(Nc3cccc(Br)c3)C(=O)N(Cc3ccccc3)C2=O)cc1Cl`, for which the GI50 in the assay with HL-60(TB) leukemia was 3410 nM; with HOP-62 NSCLC, > 100000 nM; in the assay with A549 NSCLC, 62400 nM; in the assay on KM12 colon, 65500 nM; in the assay on SF-295 CNS it was > 100 µM; in the assay on NCI-H226 lung, > 100000 nM. Besides, the GI50 in the assay with MDA-MB-231 breast is > 100000 nM; in the assay with 786-0 renal, > 100 µM; in the assay on NCI-H460 lung, 29900 nM; in the assay with DU-145 prostate, > 100 µM. The TGI with HL-60(TB) leukemia, in the assay with HOP-62 NSCLC, in the assay on A549 NSCLC, in the assay with KM12 colon, in the assay with SF-295 CNS and in the assay with NCI-H226 lung was > 100 µM throughout. The TGI with MDA-MB-231 breast, in the assay with 786-0 renal, in the assay on NCI-H460 lung and in the assay with DU-145 prostate was > 100 µM each time.

As to `CN(CCCCCl)P(=O)(OCCS(=O)(=O)CC(NC(=O)CCC(N)C(=O)O)C(=O)NC(C(=O)O)c1ccccc1)OCC1OC(n2ccc(N)nc2=O)C(F)(F)C1O` (centres undefined), the GI50 with HL-60(TB) leukemia is 33.9 nM; in the assay with HOP-62 NSCLC, 86.1 nM; in the assay with A549 NSCLC, 125 nM; in the assay on KM12 colon it was 14600 nM; in the assay with SF-295 CNS, 0.334 µM; in the assay on NCI-H226 lung it was 8030 nM. Besides, the GI50 is 14200 nM in the assay on MDA-MB-231 breast, 0.02 µM in the assay on 786-0 renal, 104 nM in the assay on NCI-H460 lung and 0.0359 µM in the assay on DU-145 prostate. The TGI in the assay with HL-60(TB) leukemia is 5.23 µM; in the assay with HOP-62 NSCLC, > 85.9 µM; in the assay with A549 NSCLC it was > 100 µM; in the assay with KM12 colon, > 100 µM; with SF-295 CNS it was 2.71 µM; in the assay with NCI-H226 lung, > 93.3 µM. The TGI in the assay on MDA-MB-231 breast is > 100 µM; in the assay with NCI-H460 lung, > 100 µM; in the assay with DU-145 prostate, 25.9 µM.

The values are drawn from PubChem BioAssay (NCI).
